Data: patent US20090069418A1, “Compositions and Methods for the Treatment of Disorders Associated with Aberrant Vasodilation” (priority 2007, published 2009)
Where two headings read alike, the source gives them in different places.

Assays:
[1] = AUDA-BE and its metabolites measured in brain tissue; format: in vivo, mice
From the text: This concentration was also biologically effective in lowering blood pressure in hypertensive model (Imig et al. (2005) Hypertension 46:975-81). Therefore, in these experiments, the levels of sEH inhibitors in the blood are in the concentration range expected to inhibit the enzyme.

epoxide hydrolase = assay: Hydrolase activity in brain tissue ex vivo, conversion of 14,15-EET to 14,15-DHET (ELISA); format: biochemical, mouse; conditions: both WT and KO brain tissue
Experimental: Total 14,15-DHET in blood was measured with a commercial ELISA (Detroit R&D, Inc, Detroit, Mich.) (Koerner et al. (2007) J. Neurosci., 27:4642-4649). Briefly, plasma lipids were extracted 3 times with ethyl acetate under acidic conditions (pH 3 to 4), followed by saponification with 20% KOH. Samples were dried and resuspended in methanol, and 14,15-DHET concentration was measured according to the manufacturer's instructions. The ELISA was also used to measure hydrolase activity in brain tissue (perfused to remove blood) incubated with 1 μM 14,15-EET for 30 minutes. Brian tissue was homogenized in 4 volumes of ice-cold buffer (20 mmol/L Tris HCL pH 7.4, 0.32 mol/L sucrose, 1 mmol/L EDTA), centrifuged at 1000 g for 10 minutes, and supernatant was further centrifuged at 10,000 g for 20 minutes.

[2] = Pharmacokinetics of AUDA-BE and its metabolites in plasma after single intraperitoneal injection; format: in vivo, C57Bl/6 mice
Experimental: A second set of animals was injected with sesame oil alone (vehicle). […] (2002) Biochem. Pharmacol., 63:1599-608; Watanabe et al. (2006) Anal. Chim. Acta., 559:37-44). Briefly, blood samples (10 μL) were collected in 1.5 mL Eppendorf microcentrifuge tubes, weighed, and vortexed with 100 μL of purified water. […] Aliquots (10 μL) were analyzed by liquid chromatography coupled mass spectroscopy LC-MS/MS (Watanabe et al. (2006) Anal. Chim. Acta., 559:37-44; Watanabe and Hammock (2001) Anal. Biochem., 299:227-34). The concentration of sEH inhibitors were quantified in extracts using HPLC with positive mode electrospray ionization and tandem mass spectrometry. Analytes were quantified on a 5-point curve with internal standard methods. Surrogate recoveries were evaluated by quantification against the internal standard. Surrogate recoveries were 70% for all reported plasma samples, the analysis of reagent blanks, matrix spikes, and analytical replicates were used to document method stability during this study. […] Differences in infarct size, enzyme activity, and blood flow rates were analyzed with a t-test for two groups and analysis of variance with post hoc Newman-Keuls multiple range test for multiple groups. The pharmacokinetic profile was examined for goodness of fit to a noncompartmental or multicompartmental models. Pharmacokinetic parameters were then obtained by fitting the blood-concentration-time data to a non-compartmental model with the WinNonlin software (Pharsight, Mountain View, Calif., USA), as described previously (Watanabe et al. (2006) Anal. Chim. Acta., 559:37-44). The criterion for statistical significance was set at P<0.05. All values are reported as mean±s.e.m.

mice = format: in vivo
From the text: Male mice between the ages of 16-24 weeks were anesthetized with isoflurane (induction 4-5 vol %; maintenance 1-2 vol %), intubated with a 20G plastic IV catheter, and mechanically ventilated using a rodent ventilator (Inspira, volume-controlled, Harvard Apparatus, MA). ECG and rectal temperature were continuously monitored using a PC-based recording device (PowerLab 8/30, ADInstruments, Colorado Springs, Colo.). The animals were positioned in a right lateral decubital position on a heating pad and rectal temperature was maintained at 37° C. throughout the experiment. A PE-10 catheter was inserted into the left jugular vein for intravenous drug infusion. Using a dissecting microscope, a left-sided thoracotomy was performed in the 4th intercostal space. […] A ligature (8-0 Monosof MV-135-4, ⅜ 5 mm tapered needle, Syneture, Norwalk, Colo.) was placed around the left coronary artery (LCA) approximately 2 mm distal to the left atrial margin. The suture was fed through a short section of PE-10 tubing to form a snare to allow temporary occlusion. The LCA was occluded for 40 minutes; occlusion was confirmed by persistent ECG changes during occlusion and visual paling of the left ventricle (LV). After 40 minutes the snare was released and reperfusion was confirmed with visual hyperemia of the LV and return of the ECG changes. After 2 hours of reperfusion the LCA was re-occluded and fluorescent polymer microspheres (0.4% solution, diameter 1-10 μm; Duke Scientific Corporation, Palo Alto, Calif.) were infused via needle puncture of the LV apex. […] Heart was then excised, rinsed in normal saline, and the right and left atria were removed under the dissecting microscope. The remaining left and right ventricles were weighed and then sliced into seven sections (d=1 mm) for imaging and staining.
Heart sections were immediately photographed with a digital camera (Canon Powershot A620) under UV light for determination of AAR. Infarct size (I) was determined by staining the heart sections in 1% 2,3,5 triphenyltetrazolium chloride (TTC) in phosphate buffer at pH 7.4 for 10 minutes, followed by 10% neutral buffered formalin (NBF) bath overnight. Pictures were taken the next day under full spectrum light. TTC stained non-infarcted myocardium red, while infarcted myocardium remained white. Both AAR and I areas were calculated in a blinded fashion using standard imaging software (Photoshop Elements 4). A calibration ruler was present in each picture to convert pixels into volume. TTC slices were volume corrected for dehydration following formalin immersion.
The 14,15-EET was obtained from BIOMOL (Plymouth Meeting, Pa.). It was dissolved in a vehicle composed of 100% ethanol and saline (1:3), resulting in a final ethanol solution of 25%. […] SNC-162, a non-peptide δ-opioid receptor agonist, was used for comparison of the magnitude of cardioprotection found within the epoxide pathway. SNC-162 (0.1 μg/g iv over 10 minutes) was dissolved in 10% DMSO.

SMILES: CCCCOC(=O)CCCCCCCCCCCNC(=O)NC12CC3CC(CC(C3)C1)C2 [AUDA-BE, 12-(3-adamantane-1-yl-ureido)-dodecanoic acid butyl ester]
- levels detected in homogenates of brain tissue ([1]; after AUDA-BE injection, methanol/chloroform extraction): not
- crossing the blood brain barrier (BBB) ([1]; mouse, in vivo): capable of crossing the blood brain barrier
- metabolism of 14,15-EET to 14,15-DHET in brain tissue (epoxide hydrolase): inhibited
- adverse effects during the 24-hour period after drug administration ([2]; 10 or 40 mg/kg doses): No apparent adverse effects
- detection of parent drug in plasma ([2]; AUDA-BE 10 mg/kg intraperitoneal): only the metabolites AUDA and AUBA were detected
- maximum concentration in plasma ([2]; AUDA-BE 40 mg/kg intraperitoneal, within the first hour): 2 µmol/L
- Infarct Volume (mice; PRO (given prior to reperfusion)): 15 ± 3 mm^3
- infarct size after myocardial I/R compared to vehicle (mice; given before ischemia or before reperfusion): significantly reduced infarct size
- Infarct Volume (mice; given prior to LCA occlusion (PRE)): 12 ± 2 mm^3
